# Laboratory results as given in patent publication US9469650B2, “Melampomagnolide B derivatives” (BOARD OF TRUSTEES OF THE UNIVERSITY OF ARKANSAS, priority 2013, dated 2016).
# Experiments:
# PC-3 = assay: panel of 60 human tumor cell lines, growth inhibition (Prostate Cancer); conditions: Homo sapiens
# SF-295 = assay: panel of 60 human tumor cell lines, growth inhibition (CNS Cancer); conditions: Homo sapiens
# UACC-257 = assay: panel of 60 human tumor cell lines, growth inhibition (Melanoma)
# M14 = assay: as above; conditions: Homo sapiens
# U251 = assay: panel of 60 human tumor cell lines, growth inhibition (CNS Cancer); conditions: Homo sapiens
# A498 = assay: panel of 60 human tumor cell lines, growth inhibition (Renal Cancer); conditions: Homo sapiens
# HT29 = assay: panel of 60 human tumor cell lines, growth inhibition (Colon Cancer); conditions: for Percent Growth: HT29
# A549/ATCC = assay: panel of 60 human tumor cell lines, growth inhibition (Non-Small Cell Lung Cancer); conditions: Homo sapiens
# SR = assay: panel of 60 human tumor cell lines, growth inhibition (Leukemia); conditions: Homo sapiens
# MDA-MB-468 = assay: panel of 60 human tumor cell lines, growth inhibition (Breast Cancer); conditions: Homo sapiens
# SNB-75 = assay: panel of 60 human tumor cell lines, growth inhibition (CNS Cancer); conditions: Homo sapiens
# NCI-H322M = assay: panel of 60 human tumor cell lines, growth inhibition (Non-Small Cell Lung Cancer); conditions: Homo sapiens
# SNB-19 = assay: panel of 60 human tumor cell lines, growth inhibition (CNS Cancer); conditions: Homo sapiens
# TK-10 = assay: panel of 60 human tumor cell lines, growth inhibition (Renal Cancer); conditions: Homo sapiens
# OVCAR-3 = assay: panel of 60 human tumor cell lines, growth inhibition (Ovarian Cancer)
# UACC-62 = assay: panel of 60 human tumor cell lines, growth inhibition (Melanoma); conditions: Homo sapiens
# NCI-H23 = assay: panel of 60 human tumor cell lines, growth inhibition (Non-Small Cell Lung Cancer); conditions: Homo sapiens
# SK-MEL-28 = assay: panel of 60 human tumor cell lines, growth inhibition (Melanoma); conditions: Homo sapiens
structure (smiles),measurement,setting,value
C=C1C(=O)O[C@H]2[C@H]1CC/C(COC(=O)OC)=C\CC[C@@]1(C)O[C@@H]21 [JVM 2-40],GI50,PC-3; PC-3,12 µM
same,CC50,"PC-3; PC-3, read-out: LC50",59.4 µM
same,IC (TGI),"PC-3; PC-3, read-out: TGI",26.7 µM
same,GI50,SF-295; SF-295,13.2 µM
same,CC50,"SF-295; SF-295, read-out: LC50",59.3 µM
same,IC (TGI),"SF-295; SF-295, read-out: TGI",28 µM
same,GI50,"UACC-257; Homo sapiens, UACC-257",4.98 µM
same,CC50,"UACC-257; Homo sapiens, UACC-257, read-out: LC50",46.7 µM
same,Percent Growth,"UACC-257; UACC-257, Log10 Concentration −4.0",−92%
same,Percent Growth,"UACC-257; UACC-257, Log10 Concentration −5.0",36%
same,Percent Growth,"UACC-257; UACC-257, Log10 Concentration −6.0",82%
same,Percent Growth,"UACC-257; UACC-257, Log10 Concentration −7.0",84%
same,Percent Growth,"UACC-257; UACC-257, Log10 Concentration −8.0",90%
same,TGI,"UACC-257; UACC-257, NCI five dose",1.90E−5
same,GI50,M14; M14,2.91 µM
same,CC50,"M14; M14, read-out: LC50",42.2 µM
same,IC (TGI),"M14; M14, read-out: TGI",14.1 µM
same,GI50,U251; U-251,16.4 µM
same,CC50,"U251; U-251, read-out: LC50",55.5 µM
same,IC (TGI),"U251; U-251, read-out: TGI",30.2 µM
same,GI50,A498; A498,10.9 µM
same,CC50,"A498; A498, read-out: LC50",49 µM
same,IC (TGI),"A498; A498, read-out: TGI",23.1 µM
same,Percent Growth,HT29; Log10 Concentration −4.0,−76%
same,Percent Growth,HT29; Log10 Concentration −5.0,83%
same,Percent Growth,HT29; Log10 Concentration −6.0,99%
same,Percent Growth,HT29; Log10 Concentration −7.0,96%
same,Percent Growth,HT29; Log10 Concentration −8.0,96%
same,GI50,"HT29; Homo sapiens, HT-29",16.1 µM
same,CC50,"HT29; Homo sapiens, HT-29, read-out: LC50",68.6 µM
same,IC (TGI),"HT29; Homo sapiens, HT-29, read-out: TGI",33.2 µM
same,GI50,A549/ATCC; A549,13.3 µM
same,CC50,"A549/ATCC; A549, read-out: LC50",61.3 µM
same,IC (TGI),"A549/ATCC; A549, read-out: TGI",28.6 µM
same,GI50,SR,2.24 µM
same,CC50,SR; read-out: LC50,> 100 µM
same,IC (TGI),SR; read-out: TGI,12.5 µM
same,GI50,MDA-MB-468; MDA-MB-468,0.574 µM
same,CC50,"MDA-MB-468; MDA-MB-468, read-out: LC50",19.2 µM
same,IC (TGI),"MDA-MB-468; MDA-MB-468, read-out: TGI",3.09 µM
same,GI50,SNB-75; SNB-75,2.69 µM
same,CC50,"SNB-75; SNB-75, read-out: LC50",42.5 µM
same,IC (TGI),"SNB-75; SNB-75, read-out: TGI",17.9 µM
same,GI50,NCI-H322M,20.9 µM
same,CC50,NCI-H322M; read-out: LC50,> 100 µM
same,IC (TGI),NCI-H322M; read-out: TGI,81.5 µM
same,GI50,SNB-19; SNB-19,13.5 µM
same,CC50,"SNB-19; SNB-19, read-out: LC50",59.1 µM
same,IC (TGI),"SNB-19; SNB-19, read-out: TGI",28.2 µM
same,GI50,"TK-10; TK-10, TK-10, NCI five dose",2.65 µM
same,CC50,"TK-10; TK-10, read-out: LC50",32.9 µM
same,IC (TGI),"TK-10; TK-10, read-out: TGI",10.8 µM
same,GI50,"OVCAR-3; Homo sapiens, OVCAR-3",2.63 µM
same,CC50,"OVCAR-3; Homo sapiens, OVCAR-3, read-out: LC50",30.6 µM
same,IC (TGI),"OVCAR-3; Homo sapiens, OVCAR-3, read-out: TGI",9.31 µM
same,Percent Growth,"OVCAR-3; OVCAR-3, Log10 Concentration −4.0",−100%
same,Percent Growth,"OVCAR-3; OVCAR-3, Log10 Concentration −5.0",−3%
same,Percent Growth,"OVCAR-3; OVCAR-3, Log10 Concentration −6.0",88%
same,Percent Growth,"OVCAR-3; OVCAR-3, Log10 Concentration −7.0",100%
same,Percent Growth,"OVCAR-3; OVCAR-3, Log10 Concentration −8.0",99%
same,GI50,UACC-62; UACC-62,5.93 µM
same,CC50,"UACC-62; UACC-62, read-out: LC50",46.2 µM
same,IC (TGI),"UACC-62; UACC-62, read-out: TGI",19.5 µM
same,GI50,NCI-H23; NCI-H23,13 µM
same,CC50,"NCI-H23; NCI-H23, read-out: LC50",85.2 µM
same,IC (TGI),"NCI-H23; NCI-H23, read-out: TGI",33.3 µM
same,GI50,SK-MEL-28; SK-MEL-28,3.59 µM
same,CC50,"SK-MEL-28; SK-MEL-28, read-out: LC50",44.8 µM
same,IC (TGI),"SK-MEL-28; SK-MEL-28, read-out: TGI",16 µM
